According to PubChem BioAssay (NCI):
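Exposure lasted 48 hours, with cells grown in 96-well plates and compounds tested at five concentrations. Abbreviation: GI50, concentration required for 50% inhibition of growth. TGI is the concentration that stops growth completely.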

How the values were obtained:
Test in all cases: growth of human tumour cells (NCI), 48 h
SNB-75 CNS = tested on: SNB-75 CNS
M14 melanoma = tested on: M14 melanoma
HS 578T breast = tested on: HS 578T breast
SK-MEL-28 melanoma = tested on: SK-MEL-28 melanoma
NCI-H226 lung = tested on: NCI-H226 lung
OVCAR-3 ovarian = tested on: OVCAR-3 ovarian
DU-145 prostate = tested on: DU-145 prostate
OVCAR-5 ovarian = tested on: OVCAR-5 ovarian
SK-OV-3 ovarian = tested on: SK-OV-3 ovarian
RPMI-8226 leukemia = tested on: RPMI-8226 leukemia
HCT-116 colon = tested on: HCT-116 colon
U251 CNS = tested on: U251 CNS
CCRF-CEM leukemia = tested on: CCRF-CEM leukemia
NCI-H460 lung = tested on: NCI-H460 lung
HL-60(TB) leukemia = tested on: HL-60(TB) leukemia
TK-10 renal = tested on: TK-10 renal
K-562 leukemia = tested on: K-562 leukemia
MALME-3M melanoma = tested on: MALME-3M melanoma
HOP-92 NSCLC = tested on: HOP-92 NSCLC
LOX IMVI melanoma = tested on: LOX IMVI melanoma
CAKI-1 renal = tested on: CAKI-1 renal
MDA-MB-231 breast = tested on: MDA-MB-231 breast
PC-3 prostate = tested on: PC-3 prostate
HOP-62 NSCLC = tested on: HOP-62 NSCLC
786-0 renal = tested on: 786-0 renal
OVCAR-4 ovarian = tested on: OVCAR-4 ovarian
MCF7 breast = tested on: MCF7 breast
SW-620 colon = tested on: SW-620 colon
MOLT-4 leukemia = tested on: MOLT-4 leukemia
ACHN renal = tested on: ACHN renal
BT-549 breast = tested on: BT-549 breast
MDA-MB-435 = tested on: MDA-MB-435
NCI/ADR-RES ovarian = tested on: NCI/ADR-RES ovarian
T-47D breast = tested on: T-47D breast
SK-MEL-5 melanoma = tested on: SK-MEL-5 melanoma
OVCAR-8 ovarian = tested on: OVCAR-8 ovarian
A498 renal = tested on: A498 renal
HCC-2998 colon = tested on: HCC-2998 colon
SF-539 CNS = tested on: SF-539 CNS
SNB-19 CNS = tested on: SNB-19 CNS
HT29 colon = tested on: HT29 colon
EKVX NSCLC = tested on: EKVX NSCLC
UO-31 renal = tested on: UO-31 renal
UACC-257 melanoma = tested on: UACC-257 melanoma
SF-295 CNS = tested on: SF-295 CNS
UACC-62 melanoma = tested on: UACC-62 melanoma
KM12 colon = tested on: KM12 colon
SN12C renal = tested on: SN12C renal
NCI-H522 lung = tested on: NCI-H522 lung
A549 NSCLC = tested on: A549 NSCLC
RXF 393 renal = tested on: RXF 393 renal
SK-MEL-2 melanoma = tested on: SK-MEL-2 melanoma
IGROV1 ovarian = tested on: IGROV1 ovarian
COLO 205 colon = tested on: COLO 205 colon
HCT-15 colon = tested on: HCT-15 colon
SF-268 CNS = tested on: SF-268 CNS

In the case of C#Cc1nc(C2=C(C)/C(=N/OCc3ccccc3)CC2)cs1, the GI50 (SNB-75 CNS) is reported as over 100 µM, the TGI (SNB-75 CNS) is reported as over 100 µM and the GI50 (M14 melanoma) is reported as 74.8 µM. The TGI (M14 melanoma) was over 100 µM, the GI50 (HS 578T breast) was 71.4 µM and the TGI (HS 578T breast) was over 100 µM. For the same compound, the GI50 (SK-MEL-28 melanoma) was 49.2 µM, the TGI (SK-MEL-28 melanoma) was over 100 µM and the GI50 (NCI-H226 lung) was 13.5 µM. The TGI (NCI-H226 lung) was over 100 µM, the GI50 (OVCAR-3 ovarian) was over 100 µM and the TGI (OVCAR-3 ovarian) was over 100 µM. The GI50 (DU-145 prostate) was over 100 µM, the TGI (DU-145 prostate) was over 100 µM and the GI50 (OVCAR-5 ovarian) was 11.7 µM. It also gave a TGI (OVCAR-5 ovarian) of over 100 µM, a GI50 (SK-OV-3 ovarian) of 25.5 µM and a TGI (SK-OV-3 ovarian) of 61.6 µM. The GI50 (RPMI-8226 leukemia) was 5.74 µM, the TGI (RPMI-8226 leukemia) was 38.3 µM and the GI50 (HCT-116 colon) was 31.9 µM. The TGI (HCT-116 colon) was over 100 µM, the GI50 (U251 CNS) was 50.1 µM and the TGI (U251 CNS) was over 100 µM. The GI50 (CCRF-CEM leukemia) was 3.28 µM, the TGI (CCRF-CEM leukemia) was 15.6 µM and the GI50 (NCI-H460 lung) was 44.2 µM. It also gave a TGI (NCI-H460 lung) of over 100 µM, a GI50 (HL-60(TB) leukemia) of 17.5 µM and a TGI (HL-60(TB) leukemia) of 40.9 µM. It also gave a GI50 (TK-10 renal) of over 100 µM, a TGI (TK-10 renal) of over 100 µM and a GI50 (K-562 leukemia) of 40.4 µM. The TGI (K-562 leukemia) was over 100 µM, the GI50 (MALME-3M melanoma) was 8.37 µM and the TGI (MALME-3M melanoma) was 30.6 µM. The GI50 (HOP-92 NSCLC) was 5.71 µM, the TGI (HOP-92 NSCLC) was 24.5 µM and the GI50 (LOX IMVI melanoma) was 0.199 µM. For the same compound, the TGI (LOX IMVI melanoma) was 0.444 µM, the GI50 (CAKI-1 renal) was 32.6 µM and the TGI (CAKI-1 renal) was over 100 µM. The GI50 (MDA-MB-231 breast) was 32.2 µM, the TGI (MDA-MB-231 breast) was over 100 µM and the GI50 (PC-3 prostate) was 36.8 µM. For the same compound, the TGI (PC-3 prostate) was over 100 µM, the GI50 (HOP-62 NSCLC) was over 100 µM and the TGI (HOP-62 NSCLC) was over 100 µM. It also gave a GI50 (786-0 renal) of 1.63 µM, a TGI (786-0 renal) of 3.12 µM and a GI50 (OVCAR-4 ovarian) of 50.9 µM. The TGI (OVCAR-4 ovarian) was over 100 µM, the GI50 (MCF7 breast) was 21.6 µM and the TGI (MCF7 breast) was over 100 µM. The GI50 (SW-620 colon) was 46.9 µM, the TGI (SW-620 colon) was over 100 µM and the GI50 (MOLT-4 leukemia) was 22.4 µM. It also gave a TGI (MOLT-4 leukemia) of 87.6 µM, a GI50 (ACHN renal) of 2.91 µM and a TGI (ACHN renal) of over 100 µM. It also gave a GI50 (BT-549 breast) of 15.5 µM, a TGI (BT-549 breast) of 33.9 µM and a GI50 (MDA-MB-435) of over 100 µM. For the same compound, the TGI (MDA-MB-435) was over 100 µM, the GI50 (NCI/ADR-RES ovarian) was 40.1 µM and the TGI (NCI/ADR-RES ovarian) was over 100 µM. The GI50 (T-47D breast) was 31 µM, the TGI (T-47D breast) was over 100 µM and the GI50 (SK-MEL-5 melanoma) was 22.6 µM. It also gave a TGI (SK-MEL-5 melanoma) of over 100 µM, a GI50 (OVCAR-8 ovarian) of 47.8 µM and a TGI (OVCAR-8 ovarian) of over 100 µM. The GI50 (A498 renal) was over 100 µM, the TGI (A498 renal) was over 100 µM and the GI50 (HCC-2998 colon) was over 100 µM. The TGI (HCC-2998 colon) was over 100 µM, the GI50 (SF-539 CNS) was 1.67 µM and the TGI (SF-539 CNS) was 3.07 µM. It also gave a GI50 (SNB-19 CNS) of 57.1 µM, a TGI (SNB-19 CNS) of over 100 µM and a GI50 (HT29 colon) of 31 µM. The TGI (HT29 colon) was over 100 µM, the GI50 (EKVX NSCLC) was over 100 µM and the TGI (EKVX NSCLC) was over 100 µM. The GI50 (UO-31 renal) was 0.405 µM, the TGI (UO-31 renal) was 1.49 µM and the GI50 (UACC-257 melanoma) was 78.5 µM. For the same compound, the TGI (UACC-257 melanoma) was over 100 µM, the GI50 (SF-295 CNS) was 4.76 µM and the TGI (SF-295 CNS) was over 100 µM. The GI50 (UACC-62 melanoma) was 37.2 µM, the TGI (UACC-62 melanoma) was over 100 µM and the GI50 (KM12 colon) was over 100 µM. For the same compound, the TGI (KM12 colon) was over 100 µM, the GI50 (SN12C renal) was 19.9 µM and the TGI (SN12C renal) was over 100 µM. For the same compound, the GI50 (NCI-H522 lung) was 5.23 µM, the TGI (NCI-H522 lung) was 23.3 µM and the GI50 (A549 NSCLC) was 43.4 µM. For the same compound, the TGI (A549 NSCLC) was over 100 µM, the GI50 (RXF 393 renal) was 2.76 µM and the TGI (RXF 393 renal) was 21.7 µM. It also gave a GI50 (SK-MEL-2 melanoma) of 61.8 µM, a TGI (SK-MEL-2 melanoma) of over 100 µM and a GI50 (IGROV1 ovarian) of 1.97 µM. For the same compound, the TGI (IGROV1 ovarian) was 4.29 µM, the GI50 (COLO 205 colon) was over 100 µM and the TGI (COLO 205 colon) was over 100 µM. It also gave a GI50 (HCT-15 colon) of 27.8 µM, a TGI (HCT-15 colon) of over 100 µM and a GI50 (SF-268 CNS) of 34.7 µM. For the same compound, the TGI (SF-268 CNS) was over 100 µM.
